Test results taken from PubChem BioAssay AID248 (DTP/NCI, 2004).
“And” between values parts separate entries of the source, which are not always exact repeats. Equal entries are not always repeated. Inconclusive results and toxic doses are left out.

Tested on: L1210 leukemia ip in BDF1 mice, survival T/C
Assay: NCI In Vivo Anticancer Drug Screen. Data for tumor model L1210 Leukemia (intraperitoneal) in B6D2F1 (BDF1) mice
Details: endpoint: mean survival time, higher = longer survival
Procedure, shortened: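 Each compound was tested against a transplantable tumor grown in mice. The endpoint was survival, with treated animals benchmarked against vehicle controls as a simple ratio.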

[1] = dose: 100.0 mg/kg/injection, schedule: Q04DX003 (ip), vehicle: acetone
[2] = dose: 200.0 mg/kg/injection, schedule: Q04DX003 (ip), vehicle: acetone
[3] = dose: 400.0 mg/kg/injection, schedule: Q04DX003 (ip), vehicle: acetone
[4] = dose: 50.0 mg/kg/injection, schedule: Q01DX009 (ip), vehicle: saline
[5] = dose: 100.0 mg/kg/injection, schedule: Q01DX009 (ip), vehicle: saline
[6] = dose: 200.0 mg/kg/injection, schedule: Q01DX009 (ip), vehicle: saline
[7] = dose: 400.0 mg/kg/injection, schedule: Q01DX009 (ip), vehicle: saline
[8] = dose: 100.0 mg/kg/injection, schedule: Q04DX003 (ip), vehicle: Klucel (hydroxypropylcellulose) (HPC)
[9] = dose: 200.0 mg/kg/injection, schedule: Q04DX003 (ip), vehicle: Klucel (hydroxypropylcellulose) (HPC)
[10] = dose: 100.0 mg/kg/injection, schedule: Q01DX001 (ip), vehicle: Klucel (hydroxypropylcellulose) (HPC)
[11] = dose: 200.0 mg/kg/injection, schedule: Q01DX001 (ip), vehicle: Klucel (hydroxypropylcellulose) (HPC)
[12] = dose: 400.0 mg/kg/injection, schedule: Q01DX001 (ip), vehicle: Klucel (hydroxypropylcellulose) (HPC)
[13] = dose: 100.0 mg/kg/injection, schedule: Q04DX003 (ip), vehicle: saline with Tween-80
[14] = dose: 200.0 mg/kg/injection, schedule: Q04DX003 (ip), vehicle: saline with Tween-80
[15] = dose: 400.0 mg/kg/injection, schedule: Q04DX003 (ip), vehicle: saline with Tween-80
[16] = dose: 100.0 mg/kg/injection, schedule: Q01DX009 (ip), vehicle: saline with Tween-80
[17] = dose: 200.0 mg/kg/injection, schedule: Q01DX009 (ip), vehicle: saline with Tween-80
[18] = dose: 400.0 mg/kg/injection, schedule: Q01DX009 (ip), vehicle: saline with Tween-80
[19] = dose: 100.0 mg/kg/injection, schedule: Q04DX002 (ip), vehicle: Klucel (hydroxypropylcellulose) (HPC)
[20] = dose: 100.0 mg/kg/injection, schedule: Q01DX009 (ip), vehicle: Klucel (hydroxypropylcellulose) (HPC)
[21] = dose: 200.0 mg/kg/injection, schedule: Q01DX009 (ip), vehicle: Klucel (hydroxypropylcellulose) (HPC)
[22] = dose: 400.0 mg/kg/injection, schedule: Q01DX009 (ip), vehicle: Klucel (hydroxypropylcellulose) (HPC)

c1ccc2c(SCCC3CCCCC3)nnnc2c1
T/C [1]: 89 % of control | T/C [2]: 98 % of control | T/C [3]: 93 % of control

Nc1c2ccccc2c[n+]2ccccc12
T/C [4]: 150 % of control | T/C [5]: 163 % of control

O=C1c2ccccc2CCC12OC2c1ccccc1[N+](=O)[O-] (stereo not drawn)
T/C [5]: 88 % of control | T/C [1]: 98 % of control | T/C [6]: 89 % of control | T/C [2]: 93 % of control | T/C [7]: 98 % of control | T/C [3]: 109 % of control

O=C(CCCC(=O)NNC(=O)Nc1ccc(Br)cc1)NNC(=O)Nc1ccc(Br)cc1
T/C (dose: 50.0 mg/kg/injection, schedule: Q01DX001 (ip), vehicle: saline): 93 % of control | T/C (dose: 100.0 mg/kg/injection, schedule: Q01DX001 (ip), vehicle: saline): 100 % of control | T/C (dose: 200.0 mg/kg/injection, schedule: Q01DX001 (ip), vehicle: saline): 96 % of control | T/C (dose: 400.0 mg/kg/injection, schedule: Q01DX001 (ip), vehicle: saline): 96 % of control

CCCCCCCCCCCC(=O)NC(=S)Nc1ccccc1F
T/C [8]: 95 % of control | T/C [9]: 87 % of control

CCCCCCCCC(=O)CCCC
T/C [5]: 103 % of control | T/C [6]: 100 % of control | T/C [7]: 100 % of control

CN1CN(c2ccccc2)C2(CCN(Cc3nc4ccc(Cl)cc4[nH]3)CC2)C1=O
T/C [10]: 101 % of control | T/C [11]: 93 % of control | T/C [12]: 91 % of control

C[N+](C)(CCl)C1CCCCC1
T/C (dose: 75.0 mg/kg/injection, schedule: Q01DX001 (ip), vehicle: saline): 107 % of control

CC1=CC(O)CCC1 (stereo not drawn)
T/C [13]: 104 % of control | T/C [14]: 109 % of control | T/C [15]: 93 % of control

NC(=S)N/N=C1\c2ccccc2-c2c(F)c(F)c(F)c(F)c21
T/C (dose: 5.0 mg/kg/injection, schedule: Q01DX001 (ip), vehicle: carboxymethylcellulose (CMC)): 96 % of control | T/C (dose: 10.0 mg/kg/injection, schedule: Q01DX001 (ip), vehicle: carboxymethylcellulose (CMC)): 107 % of control | T/C (dose: 20.0 mg/kg/injection, schedule: Q01DX001 (ip), vehicle: carboxymethylcellulose (CMC)): 96 % of control

CCCCCC(=O)Nc1cccc(O)c1
T/C [13]: 92 % of control | T/C [14]: 98 % of control

COc1ccc(C(=O)c2ccccc2)cc1OC
T/C [8]: 89 % of control | T/C [9]: 90 % of control | T/C (dose: 400.0 mg/kg/injection, schedule: Q04DX003 (ip), vehicle: Klucel (hydroxypropylcellulose) (HPC)): 89 % of control

CCCCCOC(=O)Nc1cccc(OC(=O)NC)c1
T/C [16]: 105 % of control | T/C [17]: 96 % of control | T/C [18]: 97 % of control

O=C(Cn1ccc(O)cc1=O)N1CCOCC1
T/C (dose: 100.0 mg/kg/injection, schedule: Q01DX009 (ip), vehicle: water): 105 % of control | T/C (dose: 100.0 mg/kg/injection, schedule: Q04DX003 (ip), vehicle: water): 101 % of control | T/C (dose: 200.0 mg/kg/injection, schedule: Q01DX009 (ip), vehicle: water): 100 % of control | T/C (dose: 200.0 mg/kg/injection, schedule: Q04DX003 (ip), vehicle: water): 106 % of control | T/C (dose: 400.0 mg/kg/injection, schedule: Q01DX009 (ip), vehicle: water): 103 % of control | T/C (dose: 400.0 mg/kg/injection, schedule: Q04DX003 (ip), vehicle: water): 94 % of control

N#C/C(=C\c1cccn1Cc1ccc2c(c1)OCO2)C(N)=O
T/C (dose: 25.0 mg/kg/injection, schedule: Q04DX002 (ip), vehicle: Klucel (hydroxypropylcellulose) (HPC)): 101 % of control | T/C (dose: 50.0 mg/kg/injection, schedule: Q04DX002 (ip), vehicle: Klucel (hydroxypropylcellulose) (HPC)): 101 % of control | T/C [19]: 96 % of control

O=C(Nc1cc(C(F)(F)F)ccc1Cl)Oc1ccc(F)cc1Cl
T/C [20]: 97 % of control and 101 % of control | T/C [19]: 95 % of control and 100 % of control | T/C [21]: 101 % of control and 108 % of control | T/C (dose: 200.0 mg/kg/injection, schedule: Q04DX002 (ip), vehicle: Klucel (hydroxypropylcellulose) (HPC)): 100 % of control and 104 % of control | T/C [22]: 108 % of control and 89 % of control | T/C (dose: 400.0 mg/kg/injection, schedule: Q04DX002 (ip), vehicle: Klucel (hydroxypropylcellulose) (HPC)): 103 % of control and 110 % of control

CCCCCCCCC[n+]1cccc(C(=O)c2ccccc2)c1
T/C (dose: 9.38 mg/kg/injection, schedule: Q01DX001 (ip), vehicle: saline): 98 % of control | T/C (dose: 18.75 mg/kg/injection, schedule: Q01DX001 (ip), vehicle: saline): 100 % of control | T/C (dose: 37.5 mg/kg/injection, schedule: Q01DX001 (ip), vehicle: saline): 105 % of control

O/N=C(\c1ccccc1)C(c1ccccc1)C(Cl)(Cl)Cl (stereo not drawn)
T/C [13]: 86 % of control | T/C [14]: 88 % of control | T/C [15]: 88 % of control

CCOC(=O)c1ccccc1N(O)C(=O)Nc1ccc(C)cc1
T/C [13]: 97 % of control | T/C [14]: 105 % of control | T/C [15]: 109 % of control

ClCCOCCOc1ccc(Cl)cc1
T/C [1]: 98 % of control | T/C [2]: 98 % of control | T/C [3]: 91 % of control

CCCCN(CCCC)/N=N/c1nc[nH]c1C(=O)OC
T/C (dose: 100.0 mg/kg/injection, schedule: Q01DX001 (ip), vehicle: other): 97 % of control | T/C (dose: 200.0 mg/kg/injection, schedule: Q01DX001 (ip), vehicle: other): 97 % of control

O=C(COc1ccc(Cl)cc1Cl)NC(O)C(Cl)(Cl)Cl (stereo not drawn)
T/C [16]: 94 % of control | T/C [13]: 100 % of control | T/C [17]: 87 % of control | T/C [14]: 97 % of control | T/C [18]: 89 % of control | T/C [15]: 94 % of control

CC1(C)CC(=O)c2ccccc21
T/C (dose: 25.0 mg/kg/injection, schedule: Q01DX009 (ip), vehicle: saline): 101 % of control | T/C [4]: 94 % of control and 109 % of control | T/C [5]: 101 % of control and 102 % of control | T/C (dose: 100.0 mg/kg/injection, schedule: Q04DX003 (ip), vehicle: saline): 100 % of control | T/C [6]: 104 % of control | T/C (dose: 200.0 mg/kg/injection, schedule: Q04DX003 (ip), vehicle: saline): 96 % of control | T/C (dose: 400.0 mg/kg/injection, schedule: Q04DX003 (ip), vehicle: saline): 102 % of control

CCCCN(CCCC)C(=S)S[As](SC(=S)N(CCCC)CCCC)SC(=S)N(CCCC)CCCC
T/C [20]: 97 % of control | T/C [21]: 90 % of control | T/C [22]: 97 % of control

NNC(=O)c1n[nH]c(C2OC(CO)C(O)C2O)c1N (stereo not drawn)
T/C (dose: 100.0 mg/kg/injection, schedule: Q01DX005 (ip), vehicle: saline): 100 % of control | T/C (dose: 200.0 mg/kg/injection, schedule: Q01DX005 (ip), vehicle: saline): 94 % of control

Cc1ccc(N)cc1[N+](=O)[O-]
T/C [10]: 105 % of control | T/C [11]: 95 % of control | T/C [12]: 95 % of control

CC(=O)OCCC#CCCCO
T/C [16]: 90 % of control | T/C [17]: 98 % of control | T/C [18]: 97 % of control

CCCCOc1c(OC)cc(OC)cc1C(=O)O
T/C (dose: 100.0 mg/kg/injection, schedule: Q01DX001 (ip), vehicle: carboxymethylcellulose (CMC)): 102 % of control | T/C (dose: 200.0 mg/kg/injection, schedule: Q01DX001 (ip), vehicle: carboxymethylcellulose (CMC)): 91 % of control | T/C (dose: 400.0 mg/kg/injection, schedule: Q01DX001 (ip), vehicle: carboxymethylcellulose (CMC)): 86 % of control

CCOC(=O)Nc1ccc(OCC)cc1
T/C (dose: 50.0 mg/kg/injection, schedule: Q01DX001 (ip), vehicle: Klucel (hydroxypropylcellulose) (HPC)): 98 % of control | T/C [10]: 101 % of control | T/C [11]: 102 % of control and 106 % of control | T/C [12]: 97 % of control and 98 % of control
